# Values quoted from earlier work in paper PMC5731893, “Therapeutic potential of an anti-angiogenic multimodal biomimetic peptide in hepatocellular carcinoma” (Oncotarget, 2017).
# Experiments:
# HCC = tested on: HCC
# Description: Liver cancer is one of the top causes of cancer related mortality in the world and the incidence has been increasing in the US for decades. Surgical resection and/or liver transplantation are the curative options for early diagnosed hepatocellular cancers. However, the prognosis for advanced stages of the disease is dismal owing to a lack of chemotherapeutic options. A series of anti-angiogenic drugs have been undergoing clinical trials for some time but they have not had much success because of drug related toxicity and partly because many cases of HCC are refractory to different ... || Compared to normal liver cells, HCC tumor cells are often associated with the dysregulation of numerous cellular signaling pathways. Expression changes or mutations of growth factor signaling components, specifically c-Met and insulin-like growth factor 1 receptor (IGF1R) are well documented in the pathogenesis of HCC [10]. Overexpression of c-Met and IGF1R is observed in 20-48% or 33% of HCC tumors, respectively, as are increases in the expression of the IGF1R ligand IGF-II [11]. Downstream effectors of insulin receptor substrates 1 (IRS-1) and 2 (IRS-2) have likewise been r ...
# HCC tumors = tested on: HCC tumors
# Description: Angiogenesis is a common feature of many solid tumors and plays a critical role in growth and metastatic progression of HCC. […] Aflibercept speci ... || The dual inhibition of cancer and endothelial cell functions may synergize through the reduction of resistance pathways normally associated with anti-angiogenic therapies. While angiogenesis is important for the exponential growth of cancerous tissue, non-angiogenic processes for tumor vascularization may help bypass the effects of strictly angiogenesis-based therapies. In particular, vessel co-option, or the hijacking of existing vasculature for tumor growth, is observed in models of HCC and has been associated with the diminishing efficacy of extended sorafenib treatment. Tumors from orthoto ...
# HCC cells = tested on: HCC cells
# Description: Liver cancer is one of the top causes of cancer related mortality in the world and the incidence has been increasing in the US for decades. Surgical resection and/or liver transplantation are the curative options for early diagnosed hepatocellular cancers. However, the prognosis for advanced stages of the disease is dismal owing to a lack of chemotherapeutic options. A series of anti-angiogenic drugs have been undergoing clinical trials for some time but they have not had much success because of drug related toxicity and partly because many cases of HCC are refractory to different ...
molecule,measurement,setting,value
CNC(=O)c1cc(Oc2ccc(NC(=O)Nc3ccc(Cl)c(C(F)(F)F)c3)cc2)ccn1 [Sorafenib],side effects,"HCC; human, in vivo",clinically significant
same,vessel co-option vs angiogenic mechanisms after administration,HCC tumors; orthotopic mouse models of HCC,significant preference towards vessel co-option over angiogenic mechanisms
same,effect on sensitivity to apoptotic stimuli,HCC cells,sensitize the cells to apoptotic stimuli
same,effect on HCC proliferation,HCC cells; within the S/G2/M phases of the cell cycle,slow HCC proliferation
CNC(=O)c1cc(Oc2ccc(NC(=O)Nc3ccc(Cl)c(C(F)(F)F)c3)c(F)c2)ccn1 [regorafenib],increase of median survival,"HCC; advanced HCC that progress under sorafenib, phase III",3 months
O=C1NC(=O)[C@@H](c2cn3c4c(cccc24)CCC3)[C@@H]1c1c[nH]c2ccccc12 [tivantinib],effect on overall survival,"HCC; phase II, c-Met positive HCC",significantly improve overall survival
aflibercept: soluble decoy construct containing a fusion of VEGFR1 and VEGFR2 ligand binding domains,effect on tumor growth,HCC tumors; several mouse models of HCC,inhibit tumor growth
